Measured values: ChEMBL document CHEMBL5543164 (J Med Chem, 2024)

How the values were obtained:
MCF7 [1] = assay: Induction of apoptosis in human MCF7 cells assessed as early apoptotic cells at 2.5 uM incubated for 24 hrs Annexin FITC/PI staining based flow cytometry analysis (reference value: 0.87%); type: functional
MCF7 [2] = assay: Induction of apoptosis in human MCF7 cells assessed as late apoptotic cells at 2.5 uM incubated for 24 hrs Annexin FITC/PI staining based flow cytometry analysis (reference value: 5.84%); type: functional
MCF7 [3] = assay: Induction of apoptosis in human MCF7 cells assessed as necrotic cells at 2.5 uM incubated for 24 hrs Annexin FITC/PI staining based flow cytometry analysis (reference value: 1.33%); type: functional
MCF7 [4] = assay: Induction of apoptosis in human MCF7 cells assessed as early apoptotic cells at 5 uM incubated for 24 hrs Annexin FITC/PI staining based flow cytometry analysis (reference value: 0.87%); type: functional
MCF7 [5] = assay: Induction of apoptosis in human MCF7 cells assessed as late apoptotic cells at 5 uM incubated for 24 hrs Annexin FITC/PI staining based flow cytometry analysis (reference value: 5.84%); type: functional
MCF7 [6] = assay: Induction of apoptosis in human MCF7 cells assessed as necrotic cells at 5 uM incubated for 24 hrs Annexin FITC/PI staining based flow cytometry analysis (reference value: 1.33%); type: functional
MCF7 [7] = assay: Induction of apoptosis in human MCF7 cells assessed as early apoptotic cells at 10 uM incubated for 24 hrs Annexin FITC/PI staining based flow cytometry analysis (reference value: 0.87%); type: functional
MCF7 [8] = assay: Induction of apoptosis in human MCF7 cells assessed as late apoptotic cells at 10 uM incubated for 24 hrs Annexin FITC/PI staining based flow cytometry analysis (reference value: 5.84%); type: functional
MCF7 [9] = assay: Induction of apoptosis in human MCF7 cells assessed as necrotic cells at 10 uM incubated for 24 hrs Annexin FITC/PI staining based flow cytometry analysis (reference value: 1.33%); type: functional
MCF7 [10] = assay: Antitumor activity against human MCF7 cells xenografted in BALB/c mouse assessed as tumor size at 20 mg/kg, iv measured every 2 days for 19 days (reference value: 1178 +/- 246mm3); type: functional; settings: time 19 day
MCF7 [11] = assay: Antitumor activity against human MCF7 cells xenografted in BALB/c mouse assessed as tumor size at 20 mg/kg, iv administered as lipodisc encapsulated form measured every 2 days for 19 days (reference value: 1178 +/- 246mm3); type: functional; settings: time 19 day
MCF7 [12] = assay: Antitumor activity against human MCF7 cells xenografted in BALB/c mouse assessed as tumor growth inhibition at 20 mg/kg, iv measured every 2 days for 19 days; type: functional; settings: MCF7, 456 h, time 19 day, read-out: TGI
MCF7 [13] = assay: Antitumor activity against human MCF7 cells xenografted in BALB/c mouse assessed as tumor growth inhibition at 20 mg/kg, iv administered as lipodisc encapsulated form measured every 2 days for 19 days; type: functional; settings: MCF7, 456 h, time 19 day, read-out: TGI
MCF7 [14] = settings: dose 20 mg/kg; route iv; time 19 day
MCF7 [15] = settings: dose 20 mg/kg; route iv; time 19 day; remark: listed apart in the source
MCF7 [16] = assay: cells; settings: Homo sapiens, MCF7, 24 h, read-out: Activity
MCF7 [17] = assay: cells; settings: Homo sapiens, MCF7, 24 h, read-out: Activity; remark: listed apart in the source
MCF7 [18] = assay: cells; settings: Homo sapiens, MCF7, 24 h, read-out: Activity; remark: listed apart in the source
in vivo [19] = settings: BALB/c, mouse, iv, 5 mg/kg
in vivo [20] = settings: BALB/c, mouse, iv, 5 mg/kg; remark: listed apart in the source
in vivo [21] = settings: BALB/c, mouse, iv, 5 mg/kg; remark: listed apart in the source
in vivo [22] = settings: BALB/c, mouse, iv, 5 mg/kg; remark: listed apart in the source
in vivo [23] = settings: BALB/c, mouse, iv, 5 mg/kg; remark: listed apart in the source
in vivo [24] = settings: BALB/c, mouse, iv, 5 mg/kg; remark: listed apart in the source
in vivo [25] = settings: BALB/c, mouse, iv, 5 mg/kg; remark: listed apart in the source
in vivo [26] = settings: BALB/c, mouse, iv, 5 mg/kg; remark: listed apart in the source
in vivo [27] = settings: BALB/c, mouse, iv
in vivo [28] = settings: BALB/c, mouse, iv; remark: listed apart in the source

SMILES: CN(C)C1CCN(C(=O)c2ccc(NC(=O)Nc3ccc(-c4nc(N5CCOCC5)nc(N5CCOCC5)n4)cc3)cc2)CC1 [GEDATOLISIB]
- Activity (MCF7 [1]): 0.68%
- Activity (MCF7 [2]): 7.35%
- Activity (MCF7 [3]): 1.59%
- Activity (MCF7 [4]): 0.64%
- Activity (MCF7 [5]): 8.41%
- Activity (MCF7 [6]): 1.95%
- Activity (MCF7 [7]): 0.82%
- Activity (MCF7 [8]): 11.9%
- Activity (MCF7 [9]): 1.77%
- Activity (MCF7 [10]): 591 mm3
- Activity (MCF7 [11]): 559 mm3
- inhibition in vivo at 20 mg/kg (MCF7 [12]): 53.3%
- inhibition in vivo at 20 mg/kg (MCF7 [13]): 55.9%
- T/C (MCF7 [14]): 46.7%
- T/C (MCF7 [15]): 44.1%
- viability at 2.5 µM (MCF7 [16]): 90.4%
- viability at 5 µM (MCF7 [17]): 89%
- viability at 10 µM (MCF7 [18]): 85.5%
- AUC(0-t) at 12 h (in vivo [19]): 5280 ng·h/mL
- AUC(0-t) at 12 h (in vivo [20]): 31500 ng·h/mL
- AUC(0-inf) at 12 h (in vivo [21]): 5640 ng·h/mL
- AUC(0-inf) at 12 h (in vivo [22]): 32100 ng·h/mL
- half-life at 12 h (in vivo [23]): 1.3 h
- half-life at 12 h (in vivo [24]): 7.4 h
- Cmax at 12 h (in vivo [25]): 10700 ng/mL
- Cmax at 12 h (in vivo [26]): 44000 ng/mL
- MTD at […] (in vivo [27]): 20 mg/kg
- MTD at […] (in vivo [28]): 30 mg/kg
